Measured values: ChEMBL document CHEMBL1141080, “Discovery of potent orally active thrombin receptor (protease activated receptor 1) antagonists as novel antithrombotic agents” (J Med Chem, 2005)

What was measured:
[1] = target: T1, Proteinase-activated receptor 1 (Homo sapiens, UniProt P25116)
T1 sequence (P25116 whole entry): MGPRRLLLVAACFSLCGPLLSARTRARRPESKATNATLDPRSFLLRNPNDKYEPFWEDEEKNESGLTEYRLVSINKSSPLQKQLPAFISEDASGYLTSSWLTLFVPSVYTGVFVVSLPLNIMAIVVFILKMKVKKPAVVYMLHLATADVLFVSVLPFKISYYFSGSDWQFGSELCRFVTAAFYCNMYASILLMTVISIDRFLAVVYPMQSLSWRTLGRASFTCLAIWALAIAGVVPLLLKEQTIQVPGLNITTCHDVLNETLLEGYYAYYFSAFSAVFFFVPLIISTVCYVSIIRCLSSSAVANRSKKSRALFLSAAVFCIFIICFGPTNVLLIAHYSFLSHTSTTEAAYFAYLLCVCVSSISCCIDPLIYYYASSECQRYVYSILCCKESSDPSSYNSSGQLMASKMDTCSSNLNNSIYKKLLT
Description: (§1) In vitro inhibitory concentration against human protease activated receptor 1 using [3H]-haTRAP as radioligand

[2] = Area under curve after oral administration to rats in 20% hydroxypropyl-beta-cyclodextrin after 4 hours; conditions: rat, in vivo
[3] = Maximum plasma concentration after oral administration to rats in 20% hydroxypropyl-beta-cyclodextrin after 4 hours; conditions: rat
[4] = target: T1, Proteinase-activated receptor 1; remark: listed apart in the source
Description: as §1

[5] = Bioavailability of compound after oral administration in rat at a dose of 10 mg/kg; assay type: ADME, organism-based; conditions: in vivo
[6] = Half life upon intravenous administration in rat; assay type: ADME, organism-based; conditions: in vivo
[7] = Half life after intravenous administration in monkey; assay type: ADME, organism-based; conditions: cercopithecidae, in vivo
[8] = Maximum plasma concentration upon oral administration in rat
[9] = Bioavailability of compound after oral administration in monkey; conditions: cercopithecidae, in vivo
[10] = Bioavailability of compound upon oral administration in rat; assay type: ADME, organism-based; conditions: in vivo
[11] = Half life of compound upon iv administration in rat; assay type: ADME, organism-based; conditions: in vivo

Structure (SMILES) | IC50 [1] | also measured
C[C@H]1OC(=O)[C@@H]2C[C@@H]3CCCC[C@H]3[C@H](/C=C/c3ccc(-c4cccc(Cl)c4)cn3)[C@H]12 | 10 nM | AUC at 4 h [2]: 4.11 µM·h; Cmax [3]: 1460 nM
C[C@H]1OC(=O)[C@@H]2C[C@@H]3CCCC[C@H]3[C@H](/C=C/c3cccc(-c4ccccc4)n3)[C@H]12 (racemic) |  | IC50 [4]: Not Active
COc1ccc(-c2ccc(/C=C/[C@H]3[C@@H]4CCCC[C@H]4C[C@H]4C(=O)O[C@H](C)[C@@H]34)nc2)cc1 (racemic) | 204 nM | 
C[C@H]1OC(=O)[C@@H]2C[C@@H]3CCCC[C@H]3[C@H](/C=C/c3ccc(-c4cccc(C(F)(F)F)c4)cn3)[C@H]12 |  | bioavailability [5]: 30%; half-life [6]: 3.2 h; half-life [7]: 12.4 h; Cmax [8]: 1160 nM; bioavailability [9]: 50%; AUC at 4 h [2]: 6.12 µM·h; Cmax [3]: 2300 nM
C[C@H]1OC(=O)[C@@H]2C[C@@H]3CCCC[C@H]3[C@H](/C=C/c3ccc(-c4ccc(Cl)cc4)cn3)[C@H]12 (racemic) | 1000 nM | 
C[C@H]1OC(=O)[C@@H]2C[C@@H]3CCCC[C@H]3[C@H](/C=C/c3ccc(Cc4ccccc4)cn3)[C@H]12 (racemic) | 3680 nM | 
C[C@H]1OC(=O)[C@@H]2C[C@@H]3CCCC[C@H]3[C@H](/C=C/c3ccc(-c4cccc(F)c4)cn3)[C@H]12 | 35 nM | AUC at 4 h [2]: 3.55 µM·h; Cmax [3]: 1520 nM
CCc1cccc(/C=C/[C@H]2[C@@H]3CCCC[C@H]3C[C@H]3C(=O)O[C@H](C)[C@@H]23)n1 |  | bioavailability [10]: < 3%; half-life [11]: < 1 h
CCCCCCc1cccc(/C=C/[C@H]2[C@@H]3CCCC[C@H]3C[C@H]3C(=O)O[C@H](C)[C@@H]23)n1 (racemic) | 3500 nM | 
CCCc1cccc(/C=C/[C@H]2[C@@H]3CCCC[C@H]3C[C@H]3C(=O)O[C@H](C)[C@@H]23)n1 (racemic) | 250 nM | 
COc1cccc(/C=C/[C@H]2[C@@H]3CCCC[C@H]3C[C@H]3C(=O)O[C@H](C)[C@@H]23)n1 (racemic) |  | IC50 [4]: Not Active
C[C@H]1OC(=O)[C@@H]2C[C@@H]3CCCC[C@H]3[C@H](/C=C/c3ccc(-c4cccc(C#N)c4)cn3)[C@H]12 | 25 nM | 
CC(C)c1cccc(-c2ccc(/C=C/[C@H]3[C@@H]4CCCC[C@H]4C[C@H]4C(=O)O[C@H](C)[C@@H]34)nc2)c1 | 19 nM | AUC at 4 h [2]: 0.258 µM·h; Cmax [3]: 289 nM
Cc1cccnc1/C=C/[C@H]1[C@@H]2CCCC[C@H]2C[C@H]2C(=O)O[C@H](C)[C@@H]12 (racemic) | > 5000 nM | 
C=Cc1cccc(/C=C/[C@H]2[C@@H]3CCCC[C@H]3C[C@H]3C(=O)O[C@H](C)[C@@H]23)n1 (racemic) | 150 nM | 
C[C@H]1OC(=O)[C@@H]2C[C@@H]3CCCC[C@H]3[C@H](/C=C/c3ccc(OCc4ccccc4)cn3)[C@H]12 (racemic) | 19 nM | 
C[C@H]1OC(=O)[C@@H]2C[C@@H]3CCCC[C@H]3[C@H](/C=C/c3ccc(-c4ccccc4F)cn3)[C@H]12 | 22 nM | AUC at 4 h [2]: 2.47 µM·h; Cmax [3]: 1080 nM
CC(C)Cc1cccc(/C=C/[C@H]2[C@@H]3CCCC[C@H]3C[C@H]3C(=O)O[C@H](C)[C@@H]23)n1 (racemic) | 550 nM | 
Cc1ccc(/C=C/[C@H]2[C@@H]3CCCC[C@H]3C[C@H]3C(=O)O[C@H](C)[C@@H]23)nc1 (racemic) | 1100 nM | 
COc1ccc(/C=C/[C@H]2[C@@H]3CCCC[C@H]3C[C@H]3C(=O)O[C@H](C)[C@@H]23)nc1 (racemic) | 325 nM | 
Cc1ccccc1-c1ccc(/C=C/[C@H]2[C@@H]3CCCC[C@H]3C[C@H]3C(=O)O[C@H](C)[C@@H]23)nc1 |  | AUC at 4 h [2]: 2.81 µM·h; Cmax [3]: 1220 nM

Second part, led by results:

IC50 [1] | Structure (SMILES) | also measured
11 nM | COc1ccccc1-c1ccc(/C=C/[C@H]2[C@@H]3CCCC[C@H]3C[C@H]3C(=O)O[C@H](C)[C@@H]23)nc1 | AUC at 4 h [2]: 0.413 µM·h; Cmax [3]: 419 nM
25 nM | C[C@H]1OC(=O)[C@@H]2C[C@@H]3CCCC[C@H]3[C@H](/C=C/c3ccc(-c4cccc(Br)c4)cn3)[C@H]12 | 
44 nM | CCOC(=O)c1ccccc1-c1ccc(/C=C/[C@H]2[C@@H]3CCCC[C@H]3C[C@H]3C(=O)O[C@H](C)[C@@H]23)nc1 | 
28 nM | COc1cccc(-c2ccc(/C=C/[C@H]3[C@@H]4CCCC[C@H]4C[C@H]4C(=O)O[C@H](C)[C@@H]34)nc2)c1 | AUC at 4 h [2]: 0.012 µM·h; Cmax [3]: 20 nM
1500 nM | C[C@H]1OC(=O)[C@@H]2C[C@@H]3CCCC[C@H]3[C@H](/C=C/c3cccc(CO)n3)[C@H]12 (racemic) | 
467 nM | C[C@H]1OC(=O)[C@@H]2C[C@@H]3CCCC[C@H]3[C@H](/C=C/c3ccc(-c4ccc(F)cc4)cn3)[C@H]12 (racemic) | 
27 nM | C[C@H]1OC(=O)[C@@H]2C[C@@H]3CCCC[C@H]3[C@H](/C=C/c3ccc(-c4ccccc4)cn3)[C@H]12 | AUC at 4 h [2]: 0.917 µM·h; Cmax [3]: 453 nM
1250 nM | CNc1cccc(/C=C/[C@H]2[C@@H]3CCCC[C@H]3C[C@H]3C(=O)O[C@H](C)[C@@H]23)n1 (racemic) | 
26 nM | C[C@H]1OC(=O)[C@@H]2C[C@@H]3CCCC[C@H]3[C@H](/C=C/c3ccc(-c4ccccc4Cl)cn3)[C@H]12 | AUC at 4 h [2]: 4.29 µM·h; Cmax [3]: 1780 nM
325 nM | Cc1ccc(-c2ccc(/C=C/[C@H]3[C@@H]4CCCC[C@H]4C[C@H]4C(=O)O[C@H](C)[C@@H]34)nc2)cc1 (racemic) | 
> 300 nM | C[C@H]1OC(=O)[C@@H]2C[C@@H]3CCCC[C@H]3[C@H](/C=C/c3ccc(-c4ccc(C(F)(F)F)cc4)cn3)[C@H]12 (racemic) | 
725 nM | CC(C)c1cccc(/C=C/[C@H]2[C@@H]3CCCC[C@H]3C[C@H]3C(=O)O[C@H](C)[C@@H]23)n1 (racemic) | 
100 nM | C[C@H]1OC(=O)[C@@H]2C[C@@H]3CCCC[C@H]3[C@H](/C=C/c3ccc(-c4cccc(S(N)(=O)=O)c4)cn3)[C@H]12 | 
46 nM | C[C@H]1OC(=O)[C@@H]2C[C@@H]3CCCC[C@H]3[C@H](/C=C/c3ccc(-c4ccccc4C(F)(F)F)cn3)[C@H]12 | AUC at 4 h [2]: 2.35 µM·h; Cmax [3]: 1000 nM
210 nM | C[C@H]1OC(=O)[C@@H]2C[C@@H]3CCCC[C@H]3[C@H](/C=C/c3cccc(C4CC4)n3)[C@H]12 (racemic) | 
850 nM | COCc1cccc(/C=C/[C@H]2[C@@H]3CCCC[C@H]3C[C@H]3C(=O)O[C@H](C)[C@@H]23)n1 (racemic) | 
2100 nM | Cc1ccnc(/C=C/[C@H]2[C@@H]3CCCC[C@H]3C[C@H]3C(=O)O[C@H](C)[C@@H]23)c1 (racemic) | 
13 nM | Cc1cccc(-c2ccc(/C=C/[C@H]3[C@@H]4CCCC[C@H]4C[C@H]4C(=O)O[C@H](C)[C@@H]34)nc2)c1 | AUC at 4 h [2]: 0.331 µM·h; Cmax [3]: 380 nM
4000 nM | C[C@H]1OC(=O)[C@@H]2C[C@@H]3CCCC[C@H]3[C@H](/C=C/c3ccccn3)[C@H]12 (racemic) | 
900 nM | C[C@H]1OC(=O)[C@@H]2C[C@@H]3CCCC[C@H]3[C@H](/C=C/c3cccc(Cc4ccccc4)n3)[C@H]12 (racemic) | 
143 nM | CCCCc1cccc(/C=C/[C@H]2[C@@H]3CCCC[C@H]3C[C@H]3C(=O)O[C@H](C)[C@@H]23)n1 (racemic) | 
